{"source": "patent US10028960B2", "about": "“Pyrimidine compounds as JAK kinase inhibitors” (THERAVANCE BIOPHARMA R&D IP, LLC, priority 2016, dated 2018)", "key": {"JAK1": {"molecular_target": "JAK1 (Homo sapiens (Human), UniProt P23458)", "sequence (P23458 whole entry)": "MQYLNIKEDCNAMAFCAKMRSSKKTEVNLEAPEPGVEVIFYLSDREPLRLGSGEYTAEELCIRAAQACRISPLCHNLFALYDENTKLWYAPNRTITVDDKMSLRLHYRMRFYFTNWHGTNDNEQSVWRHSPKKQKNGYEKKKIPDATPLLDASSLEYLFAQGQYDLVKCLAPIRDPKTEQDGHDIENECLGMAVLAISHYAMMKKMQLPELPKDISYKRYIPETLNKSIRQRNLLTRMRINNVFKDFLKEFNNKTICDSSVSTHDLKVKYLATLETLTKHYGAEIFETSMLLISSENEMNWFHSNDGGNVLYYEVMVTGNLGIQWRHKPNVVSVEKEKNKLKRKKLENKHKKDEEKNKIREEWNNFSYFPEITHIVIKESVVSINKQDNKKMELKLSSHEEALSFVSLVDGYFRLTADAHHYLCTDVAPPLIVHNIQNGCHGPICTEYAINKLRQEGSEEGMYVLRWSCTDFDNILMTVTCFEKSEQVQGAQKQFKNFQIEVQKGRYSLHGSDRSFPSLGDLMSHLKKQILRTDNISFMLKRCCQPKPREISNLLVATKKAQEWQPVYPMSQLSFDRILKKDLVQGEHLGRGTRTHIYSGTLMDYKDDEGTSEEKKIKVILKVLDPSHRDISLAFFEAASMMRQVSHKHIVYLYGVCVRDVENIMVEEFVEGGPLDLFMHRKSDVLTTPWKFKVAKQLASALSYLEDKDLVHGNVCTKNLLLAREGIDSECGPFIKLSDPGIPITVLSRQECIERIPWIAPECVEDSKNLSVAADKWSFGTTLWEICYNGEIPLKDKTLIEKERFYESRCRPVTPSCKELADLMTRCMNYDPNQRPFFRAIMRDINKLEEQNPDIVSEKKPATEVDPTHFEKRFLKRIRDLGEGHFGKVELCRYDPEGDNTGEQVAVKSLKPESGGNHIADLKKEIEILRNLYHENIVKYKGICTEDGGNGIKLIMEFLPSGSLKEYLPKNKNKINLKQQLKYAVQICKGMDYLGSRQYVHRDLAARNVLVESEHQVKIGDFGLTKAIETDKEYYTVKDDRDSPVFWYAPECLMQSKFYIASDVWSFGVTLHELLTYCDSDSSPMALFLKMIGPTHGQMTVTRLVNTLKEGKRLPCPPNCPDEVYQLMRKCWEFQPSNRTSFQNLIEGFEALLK", "assay": "LanthaScreen JAK biochemical assay, JAK1", "experimental": "(§1) A panel of four LanthaScreen JAK biochemical assays (JAK1, 2, 3 and Tyk2) were carried in a common kinase reaction buffer (50 mM HEPES, pH 7.5, 0.01% Brij-35, 10 mM MgCl2, and 1 mM EGTA). Recombinant GST-tagged JAK enzymes and a GFP-tagged STAT1 peptide substrate were obtained from Life Technologies."}, "JAK2": {"molecular_target": "JAK2 (Homo sapiens (Human), UniProt O60674)", "sequence (O60674 whole entry)": "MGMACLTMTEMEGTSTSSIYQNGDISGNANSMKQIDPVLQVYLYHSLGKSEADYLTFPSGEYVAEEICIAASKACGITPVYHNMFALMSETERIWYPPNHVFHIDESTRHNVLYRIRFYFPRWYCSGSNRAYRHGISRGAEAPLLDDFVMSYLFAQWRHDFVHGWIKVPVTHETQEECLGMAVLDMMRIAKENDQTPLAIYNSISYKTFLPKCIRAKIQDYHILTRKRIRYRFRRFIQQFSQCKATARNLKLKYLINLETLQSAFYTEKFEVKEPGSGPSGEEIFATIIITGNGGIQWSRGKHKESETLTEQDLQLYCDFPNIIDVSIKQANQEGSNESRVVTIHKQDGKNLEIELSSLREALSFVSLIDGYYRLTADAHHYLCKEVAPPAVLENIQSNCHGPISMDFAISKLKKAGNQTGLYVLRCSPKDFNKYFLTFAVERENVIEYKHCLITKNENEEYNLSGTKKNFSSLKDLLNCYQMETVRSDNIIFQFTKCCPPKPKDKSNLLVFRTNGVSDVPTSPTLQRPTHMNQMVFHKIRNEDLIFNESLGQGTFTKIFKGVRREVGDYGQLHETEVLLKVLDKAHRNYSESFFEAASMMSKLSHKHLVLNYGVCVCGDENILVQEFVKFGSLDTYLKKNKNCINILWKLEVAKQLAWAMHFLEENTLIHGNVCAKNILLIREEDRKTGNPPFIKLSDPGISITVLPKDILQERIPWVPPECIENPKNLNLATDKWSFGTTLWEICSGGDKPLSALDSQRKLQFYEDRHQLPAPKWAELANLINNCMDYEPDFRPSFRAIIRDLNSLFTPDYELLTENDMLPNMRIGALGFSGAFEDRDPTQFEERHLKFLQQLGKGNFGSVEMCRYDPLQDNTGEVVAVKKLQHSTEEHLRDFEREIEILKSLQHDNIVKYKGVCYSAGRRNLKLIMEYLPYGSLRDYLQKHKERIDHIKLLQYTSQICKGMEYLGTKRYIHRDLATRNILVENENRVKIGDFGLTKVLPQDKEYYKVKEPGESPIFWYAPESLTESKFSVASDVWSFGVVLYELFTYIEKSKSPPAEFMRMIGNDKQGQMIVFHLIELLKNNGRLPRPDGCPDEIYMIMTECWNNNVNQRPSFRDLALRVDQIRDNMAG", "assay": "LanthaScreen JAK biochemical assay, JAK2", "experimental": "as §1"}, "JAK3": {"molecular_target": "JAK3 (Homo sapiens (Human), UniProt P52333)", "sequence (P52333 whole entry)": "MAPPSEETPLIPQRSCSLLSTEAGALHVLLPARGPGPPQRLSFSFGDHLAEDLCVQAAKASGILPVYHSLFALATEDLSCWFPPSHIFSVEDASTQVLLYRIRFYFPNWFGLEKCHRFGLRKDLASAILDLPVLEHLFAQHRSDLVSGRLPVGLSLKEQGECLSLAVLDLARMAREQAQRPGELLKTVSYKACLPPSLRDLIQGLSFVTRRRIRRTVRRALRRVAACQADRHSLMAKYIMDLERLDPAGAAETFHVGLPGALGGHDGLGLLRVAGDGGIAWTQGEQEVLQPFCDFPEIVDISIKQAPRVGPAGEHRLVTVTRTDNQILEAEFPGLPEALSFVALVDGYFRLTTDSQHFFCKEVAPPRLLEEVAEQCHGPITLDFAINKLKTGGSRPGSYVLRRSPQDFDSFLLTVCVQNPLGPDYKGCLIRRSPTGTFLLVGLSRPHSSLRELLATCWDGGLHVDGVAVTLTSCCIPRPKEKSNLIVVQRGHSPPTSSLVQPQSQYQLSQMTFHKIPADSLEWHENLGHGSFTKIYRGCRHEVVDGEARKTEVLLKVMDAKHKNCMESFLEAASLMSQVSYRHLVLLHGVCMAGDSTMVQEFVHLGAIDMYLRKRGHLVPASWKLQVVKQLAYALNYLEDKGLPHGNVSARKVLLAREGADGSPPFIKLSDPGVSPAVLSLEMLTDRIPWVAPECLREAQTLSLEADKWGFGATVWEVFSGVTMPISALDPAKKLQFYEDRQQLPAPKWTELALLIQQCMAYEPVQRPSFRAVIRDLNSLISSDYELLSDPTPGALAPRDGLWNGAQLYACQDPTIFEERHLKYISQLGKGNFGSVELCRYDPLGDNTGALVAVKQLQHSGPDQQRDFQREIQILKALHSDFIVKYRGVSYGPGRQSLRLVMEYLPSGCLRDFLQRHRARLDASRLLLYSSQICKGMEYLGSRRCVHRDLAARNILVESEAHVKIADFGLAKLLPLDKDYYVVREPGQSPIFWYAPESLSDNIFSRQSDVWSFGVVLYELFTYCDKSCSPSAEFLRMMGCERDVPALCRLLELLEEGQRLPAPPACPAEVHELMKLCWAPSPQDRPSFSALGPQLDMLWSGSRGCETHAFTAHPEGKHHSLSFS", "assay": "LanthaScreen JAK biochemical assay, JAK3", "settings": "read-out: JAK 3 (pKi) (converted)", "experimental": "as §1"}, "[1]": {"assay": "Determination of absorption in cannulated rats", "assay_type": "in vivo, Sprague Dawley rats", "settings": "rat", "experimental": "Oral bioavailability (F %), fraction absorbed (Fa %) and fraction escaping hepatic clearance (Fh %) were determined in Sprague Dawley rats from the following two studies:\n(1) Pharmacokinetics in rats following an IV dose of test compound: Following IV dosing, plasma samples were typically collected from 0-6 hr. Drug levels were determined using an LC-MS-MS method. The resulting drug levels were used to compute the IV pharmacokinetic parameters: AUC IV and Dose IV.\n(2) Rats that have been cannulated in their portal vein (PV) and also in their jugular vein (JV) were dosed orally with test compound. Following oral dosing, plasma samples were typically collected from 0-6 hr from both the portal vein and the jugular vein. Drug levels were determined using an LC-MS-MS method. The resulting drug levels were used to compute the following pharmacokinetic parameters: AUC PO PV, AUC PO JV, and Dose PO.\nUsing data derived from the above studies, the oral bioavailability F %, and the quantities Fa % and Fh % were calculated from the following formulas: F %=(AUC PO JV/AUC IV)*(Dose IV/Dose PO)*100 Fa %=(AUC PO PV/AUC IV)*(Dose IV/Dose PO)*100 Fh %=AUC PO JV/AUC PO PV\nAUC PO JV=Area under the curve following oral dose and plasma collected from the jugular vein\nAUC PO PV=Area under the curve following oral dose and plasma collected from the portal vein\nAUC IV=Area under the curve following an intravenous dose\nDose IV=Intravenous Dose in mg/kg\nDose PO=Oral Dose in mg/kg"}, "[2]": {"tested_on": "oxazolone-induced colitis", "assay": "Mouse model of oxazolone-induced colitis", "assay_type": "in vivo, BALB/C mice", "experimental": "Oxazolone-induced colitis is an experimental model that has a histological resemblance to human ulcerative colitis (Heller et al. […], 2002, 17, 629-638). Adult BALB/C mice from Harlan were used in the assay. On day 1, animals were lightly anesthetized with isoflurane and the hairs between the shoulder were carefully removed before oxazolone (4%, 150 μL, 4:1 acetone: olive oil formulation) or vehicle solution was slowly applied for skin sensitization. Seven days after skin sensitization, the mice were fasted overnight, anesthetized with isoflurane inhalation, and a 1 mL syringe equipped with a 3.5-F catheter, filled with oxazolone solution, was inserted carefully about 4 cm into the colon of the mouse. Following insertion, 50 μL of the oxazolone solution (1%, 1:1 ethanol:water formulation) was injected very slowly (over 30 sec using an injection pump) into the colon. The catheter was removed and the mice were held vertically (head down) for 2 min to ensure that the entire oxazolone solution remained inside the colon. Drug treatment (PO, BID or TID) or vehicle was initiated a day prior to the oxazolone intrarectal (IR) challenge. Two-day post oxazolone intrarectal challenge, the Disease Activity Index (DAI) was assessed by treatment-blinded experimenters for each mouse according to the criteria score: stool consistency score (0, normal; 2, loose; 4, diarrhea), gross bleeding score (0, absence; 2, blood tinged; 4, presence), and weight loss score (0, none; 1, 1%-5%; 2, 5%-10%; 3, 10%-20%; 4, more than 20%); DAI=average of (stool consistency score+gross bleeding score+weight loss score).\nSelected compounds of the invention were tested in the assay. Efficacy in the model is evidenced by a decrease in DAI score as compared with the score from vehicle treated animals."}, "[3]": {"tested_on": "mouse splenic NK, B and T cells", "settings": "in vivo, po", "experimental": "Depletion of mouse splenic cells is an experimental model of immunosuppression (Kudlacz et al., Am. J. of Transplantation, 2004, 4, 51-57). The compound of Example 2 was assessed in the mouse splenic cell model following the same treatment paradigm as that used in the oxazolone-induced colitis model (Assay 8).\nThe compound (1, 10 and 100 mg/kg, BID) and tofacitinib (30 and 60 mg/kg, BID) as a positive control were dosed orally for three days to naïve mice. Spleens were harvested 1 h post last dose and crushed immediately for cell subtype staining. Prior to fixation, fluorophore-labelled antibodies for CD19 (FITC; B cells), CD3e (PE; pan T cells) and DX5 (APC; NK cells) were incubated with splenocyte samples from each animal to allow for simultaneous, multiple subtype % analysis on the flow cytometer. The number of total spleen cells for each animal was measured by Scepter™ 2.0 Handheld Automated Cell Counter.\nThe absolute number of lymphocyte subtype population (e.g., splenic B, T and NK cells) was calculated from the percentage of each subtype times total spleen cells for each animal. A one way ANOVA, with Dunnett's post hoc test, was used to compare the splenic lymphocytes number of the vehicle and test compound groups. The a level was set at p<0.05. Data were presented as the mean±SEM for each group."}, "[4]": {"tested_on": "TPA-induced increase in ear thickness", "assay": "Topical TPA-induced irritant contact dermatitis model in mice", "assay_type": "in vivo, Balb/c mice", "settings": "mouse ear, 6 hours after TPA", "experimental": "The objective of this assay is to assess the anti-inflammatory effect in a model of acute dermatitis of test compounds being studied for cutaneous inflammatory conditions such as atopic dermatitis (Dong et al., J Pharmacol Exp Ther, 2013, 344, 436-446).\nTopical dermal application of phorbol ester 12-O-tetradecanoylphorbol-13-acetate (TPA) in mice causes an inflammatory response that is characterized by edema and neutrophil influx at the early phase (2-24 h) and by epidermal cell proliferation at the later phase (24-48 h) (Griffiths et al., Agents and Actions, 1988, 25, 344-351). Female Balb/c mice were topically administered with either vehicle (1:7 DMSO:acetone) or 20 μL of a solution of TPA (2.5 μg) in vehicle on each ear. At 30 min before and 15 min after TPA administration, either vehicle or the compound of Example 2 at doses of 30, 100, 300, 1000, and 3000 μg in vehicle was applied topically to each ear. The degree of inflammation was assessed as the change in ear thickness at 6 hours after TPA application."}, "in vivo": {"assay": "in vivo", "settings": "Sprague Dawley, rat, po", "quoted_text": "The test compound was formulated in 0.5% methyl-cellulose in water and dosed via oral gavage at 3.2 mg/kg and 100 mg/kg to Sprague Dawley rats. At various time points (typically 0.5, 1, 3, 6, 24 hr) post dosing, blood samples were removed via cardiac puncture and intact colons were excised from the rats. Blood samples were centrifuged at 1500×g for 15 min to collect plasma. Colons were washed with ice cold phosphate buffered saline (PBS), weighed, and homogenized at a dilution of 1:10 in PBS. Plasma and colon levels of test compound were determined by LC-MS analysis against analytical standards constructed into a standard curve in the test matrix. A colon to plasma ratio was determined as the ratio of the colon AUC to the plasma AUC in μg hr/g."}}, "note": "“Also recorded” adds a separate entry of the source."}
{"smiles": "COc1cc(Nc2cc(CO)[nH]n2)nc(N(C)[C@@H]2C[C@H]3CCC[C@@H](C2)N3S(=O)(=O)N2CC(C#N)C2)n1", "note": "[Example 2, 1-(((1R,3s,5S)-3-((4-((5-(Hydroxymethyl)-1H-pyrazol-3-yl)amino)-6-methoxypyrimidin-2-yl)(methyl)amino)-9-azabicyclo[3.3.1]nonan-9-yl)sulfonyl)azetidine-3-carbonitrile]", "values": [{"measurement": "JAK 1 (pKi)", "setting": "JAK1", "value": "A (A represents a pKi value≥10 (Ki≤0.1 nM))"}, {"measurement": "JAK 2 (pKi)", "setting": "JAK2", "value": "A (A represents a pKi value≥10 (Ki≤0.1 nM))"}, {"measurement": "Ki", "setting": "JAK3", "value": "0.1 to 1", "unit": "nM"}, {"measurement": "bioavailability", "setting": "[1]; Sprague Dawley, plasma (jugular vein), oral vs IV, read-out: oral bioavailability (F %)", "value": "< 5", "unit": "%"}, {"measurement": "absorption at the portal vein (Fa %)", "setting": "[1]; oral, portal vein", "value": "less than 25%"}, {"measurement": "activity in the oxazolone-induced colitis model", "setting": "[2]; mice", "value": "demonstrated activity"}, {"measurement": "minimal dose that caused a significant anti-colitic effect", "setting": "[2]; mouse, PO BID", "value": 1, "unit": "mg/kg"}, {"measurement": "decrease in DAI score as compared with vehicle treated animals", "setting": "[2]; mouse, PO, 1, 3, and/or 10 mg/kg BID", "value": "statistically significant decrease"}, {"measurement": "treatment effect on B and T cell populations", "setting": "[3]", "value": "No treatment effect"}, {"measurement": "inhibition of TPA-induced increase in ear thickness (in words)", "setting": "[4]; topical 30-3000 μg", "value": "dose- and concentration-dependent effect; also recorded: dose- and concentration-dependent inhibition"}, {"measurement": "maximum statistically significant inhibition of TPA-induced increase in ear thickness", "setting": "[4]; topical, 1000 μg dose", "value": 41, "unit": "%"}, {"measurement": "Kp", "setting": "in vivo; 5 mg/kg", "value": "> 250"}, {"measurement": "Kp", "setting": "in vivo; 100 mg/kg", "value": "> 1200"}]}
